“Also recorded” adds a separate entry of the source.
Tests used:
[1] = biological target: T1, CHKA (Homo sapiens, UniProt P35790); assay: Differential scanning fluorimetry (DSF); assay type: binding; set-up: host or cells: E. coli BL21(DE3); details: 10 µM compound, 2 µM CHKA
Procedure: mM NaCl, 5% glycerol, 500 mM imidazole, 0.5% TCEP, pH 7.5), the eluent was concentrated, and further purified by size exclusion chromatography using a HiLoad 16/600 Superdex S200 column (Cytiva) pre-equilibrated in Buffer C (20 mM HEPES, 150 mM NaCl, pH 7.5). The resulting protein purity was assessed by SDS-PAGE, and protein identity was confirmed by tryptic digest analysis. Protein concentration was determined to be 35.5 mg/mL, and was calculated using a theoretical molar extinction coefficient of 58830 M-1cm-1 as determined by ProtParam.[5] […]
Differential Scanning Fluorimetry (DSF)
DSF buffer (20 mM HEPES, 150 mM NaCl, 0.5 mM TCEP, pH 7.5) containing 5x SYPRO Orange (Thermo Fisher Scientific) and CHKA (2 µM) was incubated with 10 µM compound at 2% DMSO final concentration in a 96-well semi-skirted real time PCR plate. Fluorescence was measured in each well over a 40-80 °C gradient using a Stratagen MX3005p qPCR instrument (Agilent Technologies). […]
Target sequence in this assay (P35790 75-457 limits assumed): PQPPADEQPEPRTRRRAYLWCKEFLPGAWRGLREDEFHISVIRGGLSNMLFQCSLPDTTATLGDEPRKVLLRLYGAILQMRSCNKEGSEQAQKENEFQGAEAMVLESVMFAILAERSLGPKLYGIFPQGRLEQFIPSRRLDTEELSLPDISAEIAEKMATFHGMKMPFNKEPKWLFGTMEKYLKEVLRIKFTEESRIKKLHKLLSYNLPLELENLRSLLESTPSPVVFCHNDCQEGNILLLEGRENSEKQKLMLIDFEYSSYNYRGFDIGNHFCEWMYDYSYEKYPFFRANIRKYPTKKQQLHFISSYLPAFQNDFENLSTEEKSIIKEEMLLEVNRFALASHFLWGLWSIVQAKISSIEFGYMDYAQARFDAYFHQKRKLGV

[2] = biological target: T1, CHKA; assay: Competitive affinity-based chemoproteomics (UNC0965 matrix), MCF7 lysate; assay type: binding; set-up: endogenous in cells; host or cells: MCF7 whole cell lysate; details: 20 μM competitor; for FC vs DMSO (log2 competition), CHKA: MCF7 lysate, n=2; for competition for CHKA binding to affinity matrix: MCF7 lysates
Procedure: A-366 and UNC0638 were purchased from Tocris. ARIAD and V-11-07-11 were purchased from Wuxi Apptec. UNC0737 and UNC0965 were synthesised as previously described.[1] Hemicholinium-3 and pyruvate kinase/lactic dehydrogenase enzymes were purchased from Sigma Aldrich. Aqueous and organic solvents were MS-grade and acquired by Sigma Aldrich unless stated otherwise.
MDA-MB-231, MCF7 and HEK293 cells were cultured in DMEM (Gibco, #11965092) supplemented with 10% FBS. K562 were cultured in IMDM (Gibco, #12440053) supplemented with 10% FBS. HepG2 were cultured in MEM (Gibco, #11095080) supplemented with 10 % FBS. […]
cultured in McCoy’s 5A (Sigma, M8403) supplemented with 10 % FBS and 1x GlutaMAX (Gibco, #35050061). Cells were maintained at 37 °C in a humidified 5% CO2 atmosphere. Peripheral blood mononuclear cells (PBMC) were isolated from healthy blood donors by density centrifugation. […]
Chemical Proteomics Drug Pulldown
For lysate generation MCF7 cells were grown until approximately 80% confluency before being pelleted and washed with PBS. Cell pellets were subsequently lysed by addition of Buffer A (50 mM Tris pH 7.5, 0. 8% v/v NP-40, 5% v/v glycerol, 1.5 mM MgCl2, 100 mM NaCl, 25 mM NaF, 1 mM Na3VO4, 1 mM PMSF, 1 mM DTT, 10 μg mL−1 TLCK, 1 μg mL−1 Leupeptin, 1 μg mL−1 Aprotinin, 1 μg mL−1 soy bean trypsin) as previously described.[2]
For each pulldown condition, UNC0965 was coupled to 100 μL of UltraLink Immobilized Streptavidin Plus bead slurry (50% in isopropanol, GE Healthcare) to generate the affinity matrix as previously […]
described.[2] Lysates were precleared with bead slurry (100 μL) for 30 min at 4 °C and then treated with UNC0638 or UNC0737 (20 μM) or DMSO control for 30 min at 4 °C followed by incubation with affinity matrix for 2 h at 4 °C. Affinity matrices were washed with buffer A (5 mL) and proteins eluted with 100 μL of 2x Laemmli sample buffer, 100 mM DTT, in PBS and heating for 10 min at 90 °C.
Eluents (70 µL) were diluted in 0.1 M Tris (pH 7.8) to 200 µL, reduced with 5 mM DTT for 30 min at RT, and alkylated with 20 mM iodoacetamide for 30 min at RT in the dark. […]
Digested samples were analysed by nano-UPLC–MS/MS using a Dionex Ultimate 3000 nano UPLC fitted with an EASY spray column (75 μm × 500 mm, 2 μm particle size, Thermo Scientific), coupled to an Orbitrap Q Exactive instrument. […]
Raw data was processed using MaxQuant[3] version 2.0.1.0 and the reference complete human proteome FASTA file (UniProt, downloaded 05.08.21). Label Free Quantification (LFQ) and Match Between Runs were selected; Cysteine carbamidomethylation was selected as a fixed modification, and methionine oxidation and asparagine deamidation as variable modifications. Default settings for identification and quantification were used. […]
Target sequence in this assay (P35790 whole entry): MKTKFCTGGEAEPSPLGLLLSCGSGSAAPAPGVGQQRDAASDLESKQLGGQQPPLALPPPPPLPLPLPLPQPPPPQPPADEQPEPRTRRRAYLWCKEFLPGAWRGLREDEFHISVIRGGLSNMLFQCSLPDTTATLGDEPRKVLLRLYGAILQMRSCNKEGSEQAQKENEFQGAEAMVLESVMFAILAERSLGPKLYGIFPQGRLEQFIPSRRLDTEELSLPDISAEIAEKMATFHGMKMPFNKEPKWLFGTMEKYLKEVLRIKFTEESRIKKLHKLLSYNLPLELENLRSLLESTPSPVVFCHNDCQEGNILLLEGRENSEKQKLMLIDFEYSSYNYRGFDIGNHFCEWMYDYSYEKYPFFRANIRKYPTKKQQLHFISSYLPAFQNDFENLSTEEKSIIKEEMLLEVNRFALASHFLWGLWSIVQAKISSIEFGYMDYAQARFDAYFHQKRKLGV

Row | SMILES | thermal stabilisation of CHKA (DSF) [1] | FC vs DMSO (log2 competition), CHKA [2] | competition for CHKA binding to affinity matrix [2]
1 | COc1cc2c(NC3CCN(C(C)C)CC3)nc(C3CCCCC3)nc2cc1OCCCN1CCCC1 [UNC0638] | thermal stabilisation | -2.284 | shared off‐target
2 | COc1cc2c(N(C)C3CCN(C(C)C)CC3)nc(C3CCCCC3)nc2cc1OCCCN1CCCC1 [UNC0737] | thermal stabilisation | -4.09 | shared off‐target; also recorded: even stronger competition
